Data on 2 compounds can be found in ChEMBL document CHEMBL1134716, “Synthesis and evaluation of GGPP geometric isomers: divergent substrate specificities of FTase and GGTase I” (Bioorg Med Chem Lett, 2001).

The target in this test is Geranylgeranyl transferase type I (Homo sapiens, UniProt P49354+P53609). In words: Inhibition of recombinant mammalian Geranylgeranyl transferase type I expressed in baculovirus.

In general, IC50 refers to the concentration at which inhibition is half-maximal. For the compound `CC(C)=CCC/C(C)=C/CC/C(C)=C\CC/C(C)=C/COP(=O)(O)OP(=O)(O)O`, the half-inhibitory concentration (IC50) is 340 nM.
In the case of `CC(C)=CCC/C(C)=C/CC/C(C)=C/CC/C(C)=C\COP(=O)(O)OP(=O)(O)O`, the concentration for half-maximal inhibition (IC50) was 100 nM.
